The numbers were not newly measured in patent US20240325353A1, “COMPOUND FOR TREATMENT OF COGNITIVE DISORDERS” (Syndesi Therapeutics SA, priority 2021, published 2024), which cites them from elsewhere.

Structures are written as SMILES. Read-outs that look alike come from different tables or passages of the source.

For data set [1] the following is noted: in vivo; cited from earlier work.
Data set [2] addresses T1, synaptic vesicle glycoprotein 2A (Homo sapiens, UniProt Q7L0J3).
T1 construct: from tissue; host or cells: brain of living healthy male subjects (PET)
The conditions noted are these: oral 100 mg for 4 days; cited from earlier work.

In data set [3] the target is T2, SV2A (Homo sapiens, UniProt Q7L0J3). The conditions noted are these: cited from earlier work.
Target sequence in this assay (Q7L0J3 whole entry, species assumed): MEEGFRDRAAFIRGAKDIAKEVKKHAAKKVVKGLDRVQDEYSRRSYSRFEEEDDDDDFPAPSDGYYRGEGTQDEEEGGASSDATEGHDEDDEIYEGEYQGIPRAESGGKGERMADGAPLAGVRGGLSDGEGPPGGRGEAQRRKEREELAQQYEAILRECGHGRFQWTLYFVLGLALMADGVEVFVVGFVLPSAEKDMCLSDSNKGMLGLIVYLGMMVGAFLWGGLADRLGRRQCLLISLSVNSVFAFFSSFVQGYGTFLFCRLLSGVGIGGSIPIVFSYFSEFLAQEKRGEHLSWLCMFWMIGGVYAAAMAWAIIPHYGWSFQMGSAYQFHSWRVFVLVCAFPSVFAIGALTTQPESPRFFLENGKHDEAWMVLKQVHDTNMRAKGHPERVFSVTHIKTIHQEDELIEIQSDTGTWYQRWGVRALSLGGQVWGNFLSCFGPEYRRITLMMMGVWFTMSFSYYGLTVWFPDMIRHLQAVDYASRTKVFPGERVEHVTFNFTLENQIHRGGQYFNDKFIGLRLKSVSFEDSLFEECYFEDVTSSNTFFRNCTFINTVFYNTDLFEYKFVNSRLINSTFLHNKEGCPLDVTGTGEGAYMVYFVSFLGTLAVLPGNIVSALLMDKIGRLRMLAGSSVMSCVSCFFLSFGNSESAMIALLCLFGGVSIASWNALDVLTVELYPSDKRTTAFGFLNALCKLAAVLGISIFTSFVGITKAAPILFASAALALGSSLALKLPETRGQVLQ
The target of data set [4] is T3, SV2A (Mus musculus, UniProt Q9JIS5).
T3 construct: host or cells: brain of audiogenic mice
T3 sequence (Q9JIS5 whole entry): as the sequence (Q7L0J3 whole entry, species assumed) above, with S62A, T71A, E144D, A154T, G440S, S482A, I572V, M634L counted along it
The note with it: audiogenic mice; cited from earlier work.

The conditions of data set [5]: animals and humans; cited from earlier work.
The target in data set [6] is T2, SV2A. Further details: host or cells: human brain (prediction for patients). The note with it: cited from earlier work.
Target sequence in this assay (Q7L0J3 whole entry): as the sequence (Q7L0J3 whole entry, species assumed) above

T1 sequence (Q7L0J3 whole entry): as the sequence (Q7L0J3 whole entry, species assumed) above

For `CC[C@H](C(N)=O)N1CCCC1=O` (single isomer, unassigned) [dextrorotatory enantiomer of levetiracetam], the activity in epilepsy result in data set [1] is “completely lacks activity”.
Turning to `CCC[C@@H]1CC(=O)N([C@@H](CC)C(N)=O)C1` [brivaracetam, (2S)-2-[(4R)-2-oxo-4-propyltetrahydro-1H-pyrrol-1-yl] butanamide], in data set [2], the “SV2A occupancy at steady state, peak” value is recorded as 82-87% and the “SV2A occupancy at steady state, trough” value is 76-82%. Moreover, the “affinity of binding to SV2A relative to levetiracetam” value on SV2A [3] is “higher affinity than levetiracetam”.
For the molecule `CC[C@@H](C(N)=O)N1CCCC1=O` [levetiracetam, (S)-(−)-alpha-ethyl-2-oxo-1-pyrrolidine acetamide], the “SV2A occupancy needed to protect against clonic seizure” value at SV2A [4] is given as ~90%. Besides, the “impact on the cognitive function” value in data set [5] was “no impact on the cognitive function”. Moreover, the “predicted SV2A occupancy at Cmin and Cmax” value is listed as 80 to 93% at SV2A [6] (patients receiving a 1 g daily dose) and 92 to 98% on SV2A [6] (patients receiving a 3 g daily dose).
